Results taken from patent US9834542B2, “LXR modulators” (BRISTOL-MYERS SQUIBB COMPANY, priority 2013, dated 2017).
pEC50: −log10 of the molar value.

Molecular target: T1, LXRβ (Homo sapiens, UniProt P55055)
T1 construct: Co-transfection expression plasmids, comprising full-length LXRα (pCMX-h LXRα[…] or LXRβ (pCMX-hLXRβ)); expressed in transfected cells; host or cells: CV-1 African Green Monkey Kidney Cells
T1 sequence (P55055 1-460): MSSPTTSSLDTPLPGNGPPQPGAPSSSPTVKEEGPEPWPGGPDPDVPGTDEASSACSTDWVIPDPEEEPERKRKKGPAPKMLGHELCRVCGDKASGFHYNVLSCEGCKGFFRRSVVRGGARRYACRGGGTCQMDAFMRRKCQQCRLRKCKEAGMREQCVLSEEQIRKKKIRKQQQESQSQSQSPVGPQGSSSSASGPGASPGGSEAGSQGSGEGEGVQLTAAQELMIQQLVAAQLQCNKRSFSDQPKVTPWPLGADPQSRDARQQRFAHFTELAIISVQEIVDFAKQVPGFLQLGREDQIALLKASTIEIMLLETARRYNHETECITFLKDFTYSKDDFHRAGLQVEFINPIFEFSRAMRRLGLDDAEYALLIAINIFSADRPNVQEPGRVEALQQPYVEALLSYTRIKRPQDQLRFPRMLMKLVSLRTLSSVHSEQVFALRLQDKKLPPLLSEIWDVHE
T1 sequence (P19793 1-462 partner): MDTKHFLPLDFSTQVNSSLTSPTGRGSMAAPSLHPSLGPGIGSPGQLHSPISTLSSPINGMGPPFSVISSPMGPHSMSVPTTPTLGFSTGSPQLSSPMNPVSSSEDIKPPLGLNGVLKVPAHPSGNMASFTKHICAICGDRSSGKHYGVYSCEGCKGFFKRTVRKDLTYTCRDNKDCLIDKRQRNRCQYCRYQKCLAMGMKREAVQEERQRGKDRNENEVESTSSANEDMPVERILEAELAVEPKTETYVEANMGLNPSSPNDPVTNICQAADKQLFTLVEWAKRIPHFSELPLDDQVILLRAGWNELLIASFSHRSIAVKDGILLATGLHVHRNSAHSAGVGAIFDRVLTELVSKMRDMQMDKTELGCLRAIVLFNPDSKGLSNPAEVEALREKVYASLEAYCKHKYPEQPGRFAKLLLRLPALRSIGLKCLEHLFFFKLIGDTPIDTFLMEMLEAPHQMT
Assay: Co-transfection assay (LXRE luciferase reporter), LXRβ
Format: cell-based
Conditions: for pEC50: CV-1 cells transfected with pCMX-hLXRβ and LXREx1-Tk-Luciferase, 20 hours incubation; for Emax: LXRβ co-transfection, relative to high control 1-(2,4-difluorobenzyl)-2-oxo-6-(4-phenoxyphenyl)-4-(trifluoromethyl)-1,2-dihydropyridine-3-carbonitrile, read-out: % Efficacy
Procedure, shortened: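 Cell-based LXRβ agonism measured as LXRE-luciferase induction in transiently transfected CV-1 cells after 20 h treatment. Potency is the curve-fit EC50; efficacy is expressed as percent of a full-agonist control's maximal response.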

pEC50	Emax [%]	SMILES
6.66	95	Cc1nc(C(F)(F)F)c(Cl)n1-c1ccc(-c2cccc(S(C)(=O)=O)c2)cc1-n1nncc1-c1ccc(Cl)cc1Cl [Example 59, 1-{4-[5-chloro-2-methyl-4-(trifluoromethyl)-1H-imidazol-1-yl]-3′-(methylsulfonyl)biphenyl-3-yl}-5-(2,4-dichlorophenyl)-1H-1,2,3-triazole]
5.76	89	CS(=O)(=O)c1cccc(-c2cc(F)c(-n3cnc(C(F)(F)F)c3)c(-n3nncc3-c3ccc(OC(F)(F)F)cc3)c2)c1 [Example 188, 1-{5-fluoro-3′-(methylsulfonyl)-4-[4-(trifluoromethyl)-1H-imidazol-1-yl]biphenyl-3-yl}-5-{4-[(trifluoromethyl)oxy]phenyl}-1H-1,2,3-triazole]
7.47	76	Cc1nc(C(F)(F)F)cn1-c1ccc(-c2cccc(S(C)(=O)=O)c2)cc1-c1nc(C(C)C)oc1-c1ccc(OC(F)(F)F)cc1 [Example 559, 2-isopropyl-4-(4-(2-methyl-4-(trifluoromethyl)-1H-imidazol-1-yl)-3′-(methylsulfonyl)-[1,1′-biphenyl]-3-yl)-5-(4-(trifluoromethoxy)phenyl)oxazole]
7.35	71	Cc1nc(-c2cc(-c3cc(F)c(CO)c(S(C)(=O)=O)c3)ccc2-n2cc(C(F)(F)F)nc2C)c(-c2ccc(C)c(F)c2)o1 [Example 503, (3-fluoro-3′-(5-(3-fluoro-4-methylphenyl)-2-methyloxazol-4-yl)-4′-(2-methyl-4-(trifluoromethyl)-1H-imidazol-1-yl)-5-(methylsulfonyl)biphenyl-4-yl)methanol]
7.68	68	Cc1cc(-c2cc(-c3cc(O)c(CF)c(S(C)(=O)=O)c3)ccc2-n2cc(C(F)(F)F)nc2C)n(-c2ccc(OC(F)(F)F)cc2)n1 [Example 303, 4-(fluoromethyl)-3′-(3-methyl-1-(4-(trifluoromethoxy)phenyl)-1H-pyrazol-5-yl)-4′-(2-methyl-4-(trifluoromethyl)-1H-imidazol-1-yl)-5-(methylsulfonyl)-[1,1′-biphenyl]-3-ol]
6.63	63	Cc1nc(-c2cc(-c3cccc(S(C)(=O)=O)c3)ccc2-n2cc(C(F)(F)F)nc2C)c(-c2cccc(OC(F)(F)C(F)(F)F)c2)o1 [Example 574, 2-methyl-4-(4-(2-methyl-4-(trifluoromethyl)-1H-imidazol-1-yl)-3′-(methylsulfonyl)-[1,1′-biphenyl]-3-yl)-5-(3-(perfluoroethoxy)phenyl)oxazole]
6.20	85	Cc1nc(-c2cc(-c3cccc(S(C)(=O)=O)c3)ccc2-n2cc(C(F)(F)F)nc2C)c(-c2ccc(Cl)nc2)o1 [Example 550, 5-(6-chloropyridin-3-yl)-2-methyl-4-(4-(2-methyl-4-(trifluoromethyl)-1H-imidazol-1-yl)-3′-(methylsulfonyl)-[1,1′-biphenyl]-3-yl)oxazole]
5.97	35	Cc1nc(C(N)=O)cn1-c1ccc(-c2cccc(S(C)(=O)=O)c2)cc1-c1nc(C2CC2)oc1-c1ccc2c(c1)OC(F)(F)O2 [Example 489, 1-(3-(2-cyclopropyl-5-(2,2-difluorobenzo[d][1,3]dioxol-5-yl)oxazol-4-yl)-3′-(methylsulfonyl)biphenyl-4-yl)-2-methyl-1H-imidazole-4-carboxamide]
6.71	55	Cc1nc(C(F)(F)F)cn1-c1ccc(-c2cc(F)c(CO)c(S(C)(=O)=O)c2)cc1-c1nc(CC(C)O)oc1-c1ccc(OC(F)(F)F)cc1 (stereo not drawn) [Example 534, 1-(4-(3′-fluoro-4′-(hydroxymethyl)-4-(2-methyl-4-(trifluoromethyl)-1H-imidazol-1-yl)-5′-(methylsulfonyl)-[1,1′-biphenyl]-3-yl)-5-(4-(trifluoromethoxy)phenyl)oxazol-2-yl)propan-2-ol]
6.28	72	Cc1nc(C(F)(F)F)cn1-c1ccc(-c2cc(F)c(CO)c(S(C)(=O)=O)c2)cc1-n1nncc1Cc1ccc(Cl)cc1 [Example 113]
6.35	47	Cc1cc(-c2oc(C)nc2-c2cc(-c3cccc(S(C)(=O)=O)c3)ccc2-n2cc(Cl)nc2C)cc(Cl)n1 [Example 468, 4-(4-(4-chloro-2-methyl-1H-imidazol-1-yl)-3′-(methylsulfonyl)biphenyl-3-yl)-5-(2-chloro-6-methylpyridin-4-yl)-2-methyloxazole]
6.57	60	COc1ncc(F)cc1-c1oc(C)nc1-c1cc(-c2cc(F)c(CO)c(S(C)(=O)=O)c2)ccc1-n1cc(C(F)(F)F)nc1C [Example 401, (3-fluoro-3′-(5-(5-fluoro-2-methoxypyridin-3-yl)-2-methyloxazol-4-yl)-4′-(2-methyl-4-(trifluoromethyl)-1H-imidazol-1-yl)-5-(methylsulfonyl)biphenyl-4-yl)methanol]
7.20	71	Cc1ccc(-c2oc(C)nc2-c2cc(-c3cccc(S(C)(=O)=O)c3)ccc2-n2cc(C(F)(F)F)nc2C)cc1 [Example 491, 2-methyl-4-(4-(2-methyl-4-(trifluoromethyl)-1H-imidazol-1-yl)-3′-(methylsulfonyl)-[1,1′-biphenyl]-3-yl)-5-(p-tolyl)oxazole]
7.40	71	Cc1nc(C(F)(F)F)cn1-c1ccc(-c2cccc(S(C)(=O)=O)c2)cc1-c1nc(C2CC2)oc1-c1ccc2c(c1)OC(F)(F)O2 [Example 482, 2-cyclopropyl-5-(2,2-difluorobenzo[d][1,3]dioxol-5-yl)-4-(4-(2-methyl-4-(trifluoromethyl)-1H-imidazol-1-yl)-3′-(methylsulfonyl)biphenyl-3-yl)oxazole]
6.27	62	Cc1nc(C(F)(F)F)cn1-c1ccc(-c2cccc(S(C)(=O)=O)c2)cc1-n1nncc1C(=O)c1ccc(Cl)cc1 [Example 10, (4-chlorophenyl)(1-{3′-(methylsulfonyl)-4-[2-methyl-4-(trifluoromethyl)-1H-imidazol-1-yl]biphenyl-3-yl}-1H-1,2,3-triazol-5-yl)methanone]
6.96	74	Cc1ccc(-c2oc(C)nc2-c2cc(-c3cccc(S(C)(=O)=O)c3)ccc2-n2cc(C(F)(F)F)nc2C)c(Cl)n1 [Example 422, 5-(2-chloro-6-methylpyridin-3-yl)-2-methyl-4-(4-(2-methyl-4-(trifluoromethyl)-1H-imidazol-1-yl)-3′-(methylsulfonyl)biphenyl-3-yl)oxazole]
6.02	72	Cc1nc(C2CC2)cn1-c1ccc(-c2cccc(S(C)(=O)=O)c2)cc1-n1nncc1-c1ccc(OC(F)(F)F)cc1 [Example 229, 1-(4-(4-cyclopropyl-2-methyl-1H-imidazol-1-yl)-3′-(methylsulfonyl)-[1,1′-biphenyl]-3-yl)-5-(4-(trifluoromethoxy)phenyl)-1H-1,2,3-triazole]
6.25	89	Cc1nc(C(F)(F)F)cn1-c1ccc(-c2cccc(S(C)(=O)=O)c2)cc1-n1nncc1-c1ccc(CF)cc1 [Example 4, 5-[4-(fluoromethyl)phenyl]-1-{3′-(methylsulfonyl)-4-[2-methyl-4-(trifluoromethyl)-1H-imidazol-1-yl]biphenyl-3-yl}-1H-1,2,3-triazole]
7.49	89	CCc1nc(-c2cc(-c3cccc(S(C)(=O)=O)c3)ccc2-n2cc(C(F)(F)F)nc2C)c(-c2ccc3c(c2)OC(F)(F)O3)o1 [Example 478, 5-(2,2-difluorobenzo[d][1,3]dioxol-5-yl)-2-ethyl-4-(4-(2-methyl-4-(trifluoromethyl)-1H-imidazol-1-yl)-3′-(methylsulfonyl)biphenyl-3-yl)oxazole]
5.51	60	Cc1nc(C(F)F)cn1-c1ccc(-c2cccc(S(C)(=O)=O)c2)cc1-n1nncc1-c1ccccc1 [Example 171, 1-{4-[4-(difluoromethyl)-2-methyl-1H-imidazol-1-yl]-3′-(methylsulfonyl)biphenyl-3-yl}-5-phenyl-1H-1,2,3-triazole]
6.55	68	Cc1ccc(-c2cnnn2-c2cc(-c3cc(Cl)c(CO)c(S(C)(=O)=O)c3)ccc2-n2cc(C(F)(F)F)nc2C)cc1 [Example 63, {3-chloro-3′-[5-(4-methylphenyl)-1H-1,2,3-triazol-1-yl]-5-(methyllsulfonyl)-4′-[2-methyl-4-(trifluoromethyl)-1H-imidazol-1-yl]biphenyl-4-yl}methanol]
